From patent publication US20220241223A1, “USE OF DISULFIRAM OR ITS DERIVATIVES FOR THE TREATMENT OF MITOCHONDRIAL DISEASES OR DYSFUNCTION” (Universite D'angers, priority 2019, published 2022)

Test system: SHY1 Mutation G137R (shy1) yeast strain
Assay: Halo test of growth on respiratory medium
Assay type: cell-based, Saccharomyces cerevisiae
Details: FIG. 1B; shy1 mutant strain; 10 and 30 nmoles on filter
Experimental: Each of the various Saccharomyces cerevisiae yeast strains used in examples 1 to 3 contain different specific mutations modeling human mutations resulting in mitochondrial diseases. At different extents, all these yeast strains present growth defect when grown on respiratory medium such as ethanol or glycerol at 28° C. or 36° C. (depending on the strain). […]
More precisely, 200 μL of the various yeast mutant strain grown in liquid YPD rich fermentable medium (1% Yeast Extract, 0.5% Bacto Peptone, 2% Glucose) at 0.4 OD600 were spread on agar-based solid respiratory medium: either YPG (1% Yeast Extract, 0.5% Bacto Peptone, 2% glycerol) or YPE (1% Yeast Extract, 0.5% Bacto Peptone, 2% ethanol). Small sterile filters were then placed on the agar surface and increasing concentrations of DSF were added to the filters at the indicated quantities. […]

CCN(CC)C(=S)S.[Na+] [DEDTC, Sodium diethyldithiocarbamate]
effect on growth defect on non-fermentable (respiratory) medium: similarly suppresses the growth defect
